Reference: ChEMBL document CHEMBL3880421, “Indazole compounds and pharmaceutical compositions for inhibiting protein kinases, and methods for their use” (2003)

Assays:
Assay type in all cases: functional
Conditions in all cases: Homo sapiens
[1] = Antiproliferative activity against VEGF-stimulated HUVEC cells assessed as reduction in cell viability at 10 nM preincubated for 1 hr followed by addition of VEGF measured after 72 hrs by MTT assay
[2] = Antiproliferative activity against VEGF-stimulated HUVEC cells assessed as reduction in cell viability at 0.5 nM preincubated for 1 hr followed by addition of VEGF measured after 72 hrs by MTT assay
[3] = Antiproliferative activity against VEGF-stimulated HUVEC cells assessed as reduction in cell viability at 2 nM preincubated for 1 hr followed by addition of VEGF measured after 72 hrs by MTT assay

CC(C)(C)c1ccc(C(=O)Nc2cccc(Oc3ccc4c(/C=C/c5ccccc5)n[nH]c4c3)c2)o1
inhibition at 0.01 µM [1]: 52%

O=C(/C=C/C(=O)Nc1cccc(C(=O)c2ccc3c(/C=C/c4ccccc4)n[nH]c3c2)c1)NCC1CC1
inhibition at 0.01 µM [1]: 3%

O=C1CC[C@H](C(=O)Nc2cccc(Oc3ccc4c(/C=C/c5ccccc5)n[nH]c4c3)c2)N1
inhibition at 0.01 µM [1]: 32%

O=C1CCC(C(=O)Nc2cccc(C(=O)c3ccc4c(/C=C/c5ccccc5)n[nH]c4c3)c2)CC1
inhibition at 0.01 µM [1]: 10%

CC(C)c1ccccc1C(=O)Nc1cccc(C(=O)c2ccc3c(/C=C/c4ccccc4)n[nH]c3c2)c1
inhibition at 0.01 µM [1]: 51%

O=C(/C=C/C1C[C@H]2C=C[C@H]1C2)Nc1cccc(Oc2ccc3c(/C=C/c4ccccc4)n[nH]c3c2)c1 (stereo partly specified)
inhibition at 0.01 µM [1]: 48%

C[C@@H](CC(=O)Nc1cccc(Oc2ccc3c(/C=C/c4ccccc4)n[nH]c3c2)c1)c1ccccc1
inhibition at 0.01 µM [1]: 42%

O=C(Cc1c(F)cccc1F)Nc1cccc(Nc2ccc3c(/C=C/c4ccccc4)n[nH]c3c2)c1
inhibition at 0.01 µM [1]: 40%

O=C(CCN1CCCCC1)Nc1cccc(C(=O)c2ccc3c(/C=C/c4ccccc4)n[nH]c3c2)c1
inhibition at 0.01 µM [1]: 2%

COc1ccc(C#N)c(C(=O)Nc2cccc(Oc3ccc4c(/C=C/c5ccccc5)n[nH]c4c3)c2)c1
inhibition at 0.01 µM [1]: 18%

O=C(Nc1cccc(Oc2ccc3c(/C=C/c4ccccc4)n[nH]c3c2)c1)C1C[C@H]2C[C@@H]1CCC2O (stereo partly specified)
inhibition at 0.01 µM [1]: 52%

CC(C)(C)[C@@H](O)C(=O)Nc1cccc(C(=O)c2ccc3c(/C=C/c4ccccc4)n[nH]c3c2)c1
inhibition at 0.01 µM [1]: 27%

CC(C)CC(O)C(=O)Nc1cccc(Nc2ccc3c(/C=C/c4ccccc4)n[nH]c3c2)c1 (stereo unspecified)
inhibition at 0.01 µM [1]: 25%

Cn1cnc(CC(=O)Nc2cccc(C(=O)c3ccc4c(/C=C/c5ccccc5)n[nH]c4c3)c2)c1
inhibition at 0.01 µM [1]: 31%

O=C(CCC(=O)N1CCCC1)Nc1cccc(C(=O)c2ccc3c(/C=C/c4ccccc4)n[nH]c3c2)c1
inhibition at 0.01 µM [1]: 27%

CN(C)C(=S)SCC(=O)Nc1cccc(C(=O)c2ccc3c(/C=C/c4ccccc4)n[nH]c3c2)c1
inhibition at 0.01 µM [1]: 25%

CC(C)c1ccccc1C(=O)Nc1cccc(Nc2ccc3c(/C=C/c4ccccc4)n[nH]c3c2)c1
inhibition at 0.01 µM [1]: 79%

Cc1ccc(C2(C(=O)Nc3cccc(Nc4ccc5c(/C=C/c6ccccc6)n[nH]c5c4)c3)CC2)cc1
inhibition at 0.01 µM [1]: 2%

CCO/C(C)=C/C(=O)Nc1cccc(Nc2ccc3c(/C=C/c4ccccc4)n[nH]c3c2)c1
inhibition at 0.01 µM [1]: 85%

CC(C)[C@@H](O)C(=O)Nc1cccc(Nc2ccc3c(/C=C/c4ccccc4)n[nH]c3c2)c1
inhibition at 0.01 µM [1]: 3%

Cc1cc(C(=O)Nc2cccc(C(=O)c3ccc4c(/C=C/c5ccccc5)n[nH]c4c3)c2)oc(=O)c1
inhibition at 0.01 µM [1]: 64%

CC(C)CC(=O)C(=O)Nc1cccc(Oc2ccc3c(/C=C/c4ccccc4)n[nH]c3c2)c1
inhibition at 0.01 µM [1]: 64%

O=C(Nc1cccc(Nc2ccc3c(/C=C/c4ccccc4)n[nH]c3c2)c1)C(=O)C1=CCCCC1
inhibition at 0.01 µM [1]: 23%

Cc1ccc(C2(C(=O)Nc3cccc(C(=O)c4ccc5c(/C=C/c6ccccc6)n[nH]c5c4)c3)CC2)cc1
inhibition at 0.01 µM [1]: 0%

CN(C)C(=S)SCC(=O)Nc1cccc(Oc2ccc3c(/C=C/c4ccccc4)n[nH]c3c2)c1
inhibition at 0.01 µM [1]: 70%

CC1(C)OC(=O)CC1C(=O)Nc1cccc(C(=O)c2ccc3c(/C=C/c4ccccc4)n[nH]c3c2)c1 (stereo unspecified)
inhibition at 0.01 µM [1]: 5%

Cc1cc(C(=O)Nc2cccc(C(=O)c3ccc4c(/C=C/c5ccccc5)n[nH]c4c3)c2)no1
inhibition at 0.01 µM [1]: 50%

CC1(C)OC(=O)[C@H](CC(=O)Nc2cccc(C(=O)c3ccc4c(/C=C/c5ccccc5)n[nH]c4c3)c2)O1
inhibition at 0.01 µM [1]: 19%

CC(=O)N1CCC[C@@H]1C(=O)Nc1cccc(Nc2ccc3c(/C=C/c4ccccc4)n[nH]c3c2)c1
inhibition at 0.01 µM [1]: -5%

CC(C)(CO)CNC(=O)c1ccccc1Nc1ccc2c(/C=C/c3ccccn3)n[nH]c2c1
inhibition at 0.0005 µM [2]: 8% | inhibition at 0.002 µM [3]: 22%

CC(C)C(C)NC(=O)c1ccccc1Nc1ccc2c(/C=C/c3ccccn3)n[nH]c2c1 (stereo unspecified)
inhibition at 0.0005 µM [2]: 19% | inhibition at 0.002 µM [3]: 55%

O=C(NOCc1ccccc1)c1ccccc1Nc1ccc2c(/C=C/c3ccccn3)n[nH]c2c1
inhibition at 0.0005 µM [2]: 70 to 74% | inhibition at 0.002 µM [3]: 101 to 111%

O=C(NCCC1OCCO1)c1ccccc1Nc1ccc2c(/C=C/c3ccccn3)n[nH]c2c1
inhibition at 0.0005 µM [2]: 38% | inhibition at 0.002 µM [3]: 68%

O=C(N[C@@H]1CCCC[C@@H]1O)c1ccccc1Nc1ccc2c(/C=C/c3ccccn3)n[nH]c2c1
inhibition at 0.0005 µM [2]: 26% | inhibition at 0.002 µM [3]: 59%

CNC(=O)c1ccccc1Nc1ccc2c(/C=C/c3ccccn3)n[nH]c2c1
inhibition at 0.0005 µM [2]: 8% | inhibition at 0.002 µM [3]: 21%

CCC(CC)NC(=O)c1ccccc1Nc1ccc2c(/C=C/c3ccccn3)n[nH]c2c1
inhibition at 0.0005 µM [2]: 25% | inhibition at 0.002 µM [3]: 14%

CC(C)(N)CNC(=O)c1ccccc1Nc1ccc2c(/C=C/c3ccccn3)n[nH]c2c1
inhibition at 0.0005 µM [2]: 31% | inhibition at 0.002 µM [3]: 3%

CNNC(=O)c1ccccc1Nc1ccc2c(/C=C/c3ccccn3)n[nH]c2c1
inhibition at 0.0005 µM [2]: 13% | inhibition at 0.002 µM [3]: 31%

CCC(C)NC(=O)c1ccccc1Nc1ccc2c(/C=C/c3ccccn3)n[nH]c2c1 (stereo unspecified)
inhibition at 0.0005 µM [2]: 29% | inhibition at 0.002 µM [3]: 58%

CCN(CC)CCCCNC(=O)c1ccccc1Nc1ccc2c(/C=C/c3ccccn3)n[nH]c2c1
inhibition at 0.0005 µM [2]: 22% | inhibition at 0.002 µM [3]: 36%

CC(C)CCNC(=O)c1ccccc1Nc1ccc2c(/C=C/c3ccccn3)n[nH]c2c1
inhibition at 0.0005 µM [2]: 14 to 47% | inhibition at 0.002 µM [3]: 47 to 55%

Cc1csc(NC(=O)c2ccccc2Nc2ccc3c(/C=C/c4ccccn4)n[nH]c3c2)n1
inhibition at 0.0005 µM [2]: 15% | inhibition at 0.002 µM [3]: 95%

O=C(NCCCN(CCO)CCO)c1ccccc1Nc1ccc2c(/C=C/c3ccccn3)n[nH]c2c1
inhibition at 0.0005 µM [2]: 4% | inhibition at 0.002 µM [3]: 4%

O=C(O)CNC(=O)CCNC(=O)c1ccccc1Nc1ccc2c(/C=C/c3ccccn3)n[nH]c2c1
inhibition at 0.0005 µM [2]: 49% | inhibition at 0.002 µM [3]: -9%

O=C(NCc1cccnc1)c1ccccc1Nc1ccc2c(/C=C/c3ccccn3)n[nH]c2c1
inhibition at 0.0005 µM [2]: 30% | inhibition at 0.002 µM [3]: 78%

NC(=O)CCNC(=O)c1ccccc1Nc1ccc2c(/C=C/c3ccccn3)n[nH]c2c1
inhibition at 0.0005 µM [2]: 8% | inhibition at 0.002 µM [3]: 18%

CCCC(CO)NC(=O)c1ccccc1Nc1ccc2c(/C=C/c3ccccn3)n[nH]c2c1 (stereo unspecified)
inhibition at 0.0005 µM [2]: 44% | inhibition at 0.002 µM [3]: 40%

CC(C)c1ccc(CNC(=O)c2ccccc2Nc2ccc3c(/C=C/c4ccccn4)n[nH]c3c2)cc1
inhibition at 0.0005 µM [2]: 23% | inhibition at 0.002 µM [3]: 51%

O=C(NCCc1ccccc1)c1ccccc1Nc1ccc2c(/C=C/c3ccccn3)n[nH]c2c1
inhibition at 0.0005 µM [2]: 15% | inhibition at 0.002 µM [3]: 99%

CC(C)N(CCNC(=O)c1ccccc1Nc1ccc2c(/C=C/c3ccccn3)n[nH]c2c1)C(C)C
inhibition at 0.0005 µM [2]: 37% | inhibition at 0.002 µM [3]: 15%

CC1(C)CC(NC(=O)c2ccccc2Nc2ccc3c(/C=C/c4ccccn4)n[nH]c3c2)CC(C)(C)N1
inhibition at 0.0005 µM [2]: 35% | inhibition at 0.002 µM [3]: 10%

O=C(NC1CCS(=O)(=O)C1)c1ccccc1Nc1ccc2c(/C=C/c3ccccn3)n[nH]c2c1 (stereo unspecified)
inhibition at 0.0005 µM [2]: 27% | inhibition at 0.002 µM [3]: 2%

O=C(NC1CCSC1=O)c1ccccc1Nc1ccc2c(/C=C/c3ccccn3)n[nH]c2c1 (stereo unspecified)
inhibition at 0.0005 µM [2]: 25% | inhibition at 0.002 µM [3]: 40%

O=C(NNc1ccccn1)c1ccccc1Nc1ccc2c(/C=C/c3ccccn3)n[nH]c2c1
inhibition at 0.0005 µM [2]: 19 to 32% | inhibition at 0.002 µM [3]: 35 to 92%

CN(NC(=O)c1ccccc1Nc1ccc2c(/C=C/c3ccccn3)n[nH]c2c1)c1ccccc1
inhibition at 0.0005 µM [2]: 16% | inhibition at 0.002 µM [3]: 37%

CCCCC(CC)NC(=O)c1ccccc1Nc1ccc2c(/C=C/c3ccccn3)n[nH]c2c1 (stereo unspecified)
inhibition at 0.0005 µM [2]: 31% | inhibition at 0.002 µM [3]: 30%

CCCC(C)NC(=O)c1ccccc1Nc1ccc2c(/C=C/c3ccccn3)n[nH]c2c1 (stereo unspecified)
inhibition at 0.0005 µM [2]: 29% | inhibition at 0.002 µM [3]: 92%

O=C(NCc1cccc(F)c1)c1ccccc1Nc1ccc2c(/C=C/c3ccccn3)n[nH]c2c1
inhibition at 0.0005 µM [2]: 81% | inhibition at 0.002 µM [3]: 95%

O=C(NCc1ccccn1)c1ccccc1Nc1ccc2c(/C=C/c3ccccn3)n[nH]c2c1
inhibition at 0.0005 µM [2]: 6% | inhibition at 0.002 µM [3]: 43%

O=C(NCC(c1ccccc1)c1ccccc1)c1ccccc1Nc1ccc2c(/C=C/c3ccccn3)n[nH]c2c1
inhibition at 0.0005 µM [2]: 11% | inhibition at 0.002 µM [3]: 15%

COC(CNC(=O)c1ccccc1Nc1ccc2c(/C=C/c3ccccn3)n[nH]c2c1)OC
inhibition at 0.0005 µM [2]: 47% | inhibition at 0.002 µM [3]: 89%

CCC(O)CNC(=O)c1ccccc1Nc1ccc2c(/C=C/c3ccccn3)n[nH]c2c1 (stereo unspecified)
inhibition at 0.0005 µM [2]: 13% | inhibition at 0.002 µM [3]: 23%

CCN(CC)CCCC(C)NC(=O)c1ccccc1Nc1ccc2c(/C=C/c3ccccn3)n[nH]c2c1 (stereo unspecified)
inhibition at 0.0005 µM [2]: 3% | inhibition at 0.002 µM [3]: 15%

CC(CCc1ccccc1)NC(=O)c1ccccc1Nc1ccc2c(/C=C/c3ccccn3)n[nH]c2c1 (stereo unspecified)
inhibition at 0.0005 µM [2]: 50% | inhibition at 0.002 µM [3]: 40%

CCN(CC)CCCNC(=O)c1ccccc1Nc1ccc2c(/C=C/c3ccccn3)n[nH]c2c1
inhibition at 0.0005 µM [2]: 31% | inhibition at 0.002 µM [3]: -1%

CCN1CCCC1CNC(=O)c1ccccc1Nc1ccc2c(/C=C/c3ccccn3)n[nH]c2c1 (stereo unspecified)
inhibition at 0.0005 µM [2]: 18% | inhibition at 0.002 µM [3]: 5%

CC(=O)NNC(=O)c1ccccc1Nc1ccc2c(/C=C/c3ccccn3)n[nH]c2c1
inhibition at 0.0005 µM [2]: 4% | inhibition at 0.002 µM [3]: 10%

O=C(NCCCN1CCCCCC1)c1ccccc1Nc1ccc2c(/C=C/c3ccccn3)n[nH]c2c1
inhibition at 0.0005 µM [2]: 25% | inhibition at 0.002 µM [3]: -5%

O=C(CNC(=O)c1ccccc1Nc1ccc2c(/C=C/c3ccccn3)n[nH]c2c1)NO
inhibition at 0.0005 µM [2]: 5% | inhibition at 0.002 µM [3]: 9%

CC(C)(C(=O)NNC(=O)c1ccccc1Nc1ccc2c(/C=C/c3ccccn3)n[nH]c2c1)n1cncn1
inhibition at 0.0005 µM [2]: 34% | inhibition at 0.002 µM [3]: 90%
